This note sets out measurements from PubChem BioAssay (NCI).

Holding throughout (assay): NCI-60 cell line screen, 48 h
Test [1] deals with UO-31 renal.
The subject of test [2] is A549 NSCLC.
Test [3] has as its system 786-0 renal.
Test [4] concerns A498 renal.
The test system of test [5] is SN12C renal.
The subject of test [6] is M14 melanoma.
Test [7] has as its system HCT-116 colon.
Test [8] relates to OVCAR-3 ovarian.
For test [9], the system named is MDA-MB-231 breast.

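Cells were grown in 96-well plates and exposed to each compound for 48 hours at five concentrations; endpoints were interpolated linearly between bracketing concentrations, or set to the highest concentration if not reached. GI50: concentration for 50% inhibition of growth. TGI: concentration producing complete growth inhibition.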

Take `CC(=O)Nc1ccc(C2[C@H]3C(=O)N(c4ccc(Cc5ccc(N6C(=O)[C@@H]7ON(c8ccccc8)C(c8ccc(NC(C)=O)cc8)[C@@H]7C6=O)cc5)cc4)C(=O)[C@H]3ON2c2ccccc2)cc1` (stereo not given in full): the TGI was over 100 µM in test [1]; over 100 µM in [2]; over 100 µM in test [3]; over 100 µM in test [4]; over 100 µM in [5]; 79.8 µM in [6]. Further, the TGI in test [7] and in [8] was over 100 µM in each case.

On to `COC(=O)C1=C(O)C(O)=C(C(=O)OC)C1`, for which the TGI in test [1], in test [2], in test [3], in [4], in test [5] and in [6] was over 100 µM in each case. In addition, the TGI in test [7] and in test [8] was over 100 µM each time.

As for `CC1NOC(=O)C1N=Nc1ccccc1Cl` (stereo not given), the TGI in [1] was 34.5 µM; in test [2], over 100 µM; in [3], over 100 µM; in test [4] it was 49.3 µM; in test [5], over 100 µM; in [6], over 100 µM. The TGI in test [7] and in test [8] was over 100 µM throughout.

In the case of `O=S1(=O)C[C@@H](O)[C@H](O)CS1`, the TGI in test [1], in test [2], in [3], in test [4], in test [5] and in [6] was over 100 µM in each case. The TGI in [7] and in test [8] was over 100 µM throughout.

For the molecule `ON=C1CCC(c2ccccc2)CC1` (stereo not given), the TGI in test [1], in test [2], in test [3], in test [4], in [5] and in [6] was over 100 µM in each case. For the same molecule, the TGI in test [7] and in test [8] was over 100 µM each time.

Turning to `CCOC(=O)c1ccc(N2C(=O)/C(=C\OC)c3ccccc3C2=O)cc1`, the TGI in test [1] is 62.8 µM; in [2], over 100 µM; in [3], over 100 µM; in [5], over 100 µM; in test [7], over 100 µM; in [8] it was over 100 µM.

Regarding `CC(C(=O)Oc1ccc2ccccc2c1-c1c(O)ccc2ccccc12)c1ccccc1` (stereo not given), the TGI in test [1] was determined as 6.37 µM; in test [2], 30 µM; in test [3], 29.3 µM; in [4] it was 29.4 µM; in [5] it was 29.7 µM; in test [6], 27.7 µM. For the same molecule, the TGI in [7] worked out at 25.6 µM; in test [8], 26.6 µM.

Turning to `O=C([CH-]C(=O)c1ccccc1)c1ccccc1.O=C([CH-]C(=O)c1ccccc1)c1ccccc1.[Nd+3].[OH-].[OH3+]`, the GI50 was 3.11 µM in [1]; 17.2 µM in test [2]; 7.79 µM in test [3]; 11 µM in [4]; 12.6 µM in test [5]; 13.7 µM in test [6]. Further, the GI50 in test [7] was 5.26 µM; in test [8], 8.31 µM. The TGI in [1] turned out to be 12.4 µM; in [2], 51.5 µM; in [3], 33.7 µM; in test [4] it was 39.6 µM; in [5] it was 70.7 µM; in test [6], 32.6 µM. In addition, the TGI in test [7] is 19 µM; in test [8], 26.6 µM.

Consider `O=C(c1ccccc1)c1c(C(=O)c2ccccc2)c(-c2ccccc2)c2c(-c3ccccc3)sc(-c3ccccc3)c2c1-c1ccccc1`, for which the TGI in test [1], in test [2], in test [3], in test [4], in [5] and in test [6] was over 100 µM each time. Further, the TGI in test [7] and in [8] was over 100 µM throughout.

In the case of `Cc1c2cc[nH]c(=O)c2cc2c(=O)c3cnccc3[nH]c12`, the TGI in test [1], in test [2], in test [3], in test [4], in test [5] and in test [6] was over 100 µM each time. In addition, the TGI in test [7] and in test [8] was over 100 µM throughout.

Regarding `CCOC(=O)C(C)c1cc(C2(C)OCCO2)c(C)o1` (stereo not given), the TGI in test [1], in [2], in [3], in [5], in test [6] and in test [7] was over 100 µM in each case. Moreover, the TGI in test [8] is over 100 µM.

On to `CN(c1ccccc1)C(c1ccccc1)C(O)c1ccccc1` (stereo not given), for which the TGI in test [1] is 41.9 µM; in test [2] it was 35.4 µM; in test [3] it was 33.8 µM; in [4] it was 37.5 µM; in [5] it was 31.3 µM; in [6], 30.4 µM. The TGI in [7] amounted to 33.7 µM; in test [8] it was 32 µM.

Consider `O=c1cc2ccccc2nn1-c1ccccc1Cl`, for which the TGI in test [1] was 96.6 µM; in test [2], over 100 µM; in [3] it was over 100 µM; in test [4], over 100 µM; in test [5] it was over 100 µM; in test [6], over 100 µM. Moreover, the TGI in test [7] and in test [8] was over 100 µM in each case.

Consider `O=C1C(=O)N(c2ccc(Cl)c(Cl)c2)C(=O)C(=O)C1c1nc2ccccc2o1`, for which the TGI in test [1], in [2], in test [3], in test [5], in [6] and in test [7] was over 100 µM throughout. In [8], this molecule returned a TGI of over 100 µM.

For the molecule `Cc1cc(C)nc(Nc2nc3ccc([N+](=O)[O-])cc3[nH]2)n1`, the TGI in [1], in test [2], in test [3], in test [4], in [5] and in test [6] was over 100 µM in each case. Further, the TGI in test [7] and in test [8] was over 100 µM each time.

As to `CS(=O)c1ccc(COP(N)(=O)N(CCCl)CCCl)cc1` (stereo not given), the TGI in [1], in test [2], in [3], in test [4], in [5] and in [6] was over 100 µM throughout. In addition, the TGI in [7] and in test [8] was over 100 µM each time.

On to `O=C(O)C12C3CCCC1C2CC3` (stereo not given), for which the TGI in test [1], in [2], in [3], in test [4], in [5] and in test [6] was over 100 µM each time. The TGI in [7] and in test [8] was over 100 µM throughout.

For the molecule `COC(=O)c1c(CC#N)cccc1CC#N`, the TGI in test [1], in test [2], in test [3], in test [5], in test [6] and in test [7] was over 100 µM each time. In [8], this molecule displayed a TGI of over 100 µM.

Consider `Nc1c(-c2nc3ccccc3[nH]2)sc(=S)n1-c1ccccc1`, for which the TGI in test [1], in test [2], in [3], in test [4], in test [5] and in test [6] was over 100 µM throughout. For the same molecule, the TGI in test [7] and in test [8] was over 100 µM in each case.

For `N.N.NC(CS)C(=O)[O-].NC(CS)C(=O)[O-].[Pt+4]` (stereo not given), the GI50 is over 5 µM in test [1]; over 50 µM in test [2]; over 50 µM in [3]; over 50 µM in [5]; over 50 µM in test [6]; over 50 µM in test [7]. Moreover, in test [8], the GI50 is over 50 µM. The TGI is over 5 µM in [1]; over 50 µM in test [2]; over 50 µM in [3]; over 50 µM in test [5]; over 50 µM in test [6]; over 50 µM in test [7]. Further, the TGI in test [8] is over 50 µM.

For the molecule `O=C1OC2(c3ccccc3Oc3ccccc32)c2ccccc21`, the TGI in test [1], in test [2], in test [3], in [4], in [5] and in test [6] was over 100 µM each time. Moreover, the TGI in [7] and in [8] was over 100 µM in each case.

Consider `C=C1CC[C@@H]2C(C)(C)CCC[C@@]2(C)[C@@H]1Cc1cc(O)ccc1O`, for which the TGI is 5.25 µM in test [1]; 23 µM in [2]; 12 µM in [3]; 27.6 µM in test [4]; 15.6 µM in test [5]; 24.3 µM in test [6]. Also, the TGI is 16.8 µM in test [7] and 18.5 µM in test [8].

Consider `O=[N+]([O-])C1C2C=CC(C2)[C@H]1c1ccccc1Cl` (stereo not given in full), for which the TGI in [1] was 97.7 µM; in [2], over 100 µM; in test [3] it was over 100 µM; in test [4] it was over 100 µM; in test [5], over 100 µM; in test [6], over 100 µM. Moreover, the TGI was over 100 µM in [7] and over 31.6 µM in test [8].

As to `CN(C)CCCNC(=O)c1cc(NC(=O)c2cc(NC(=O)c3cc(NC(=O)CCc4c[nH]c5ccccc45)cn3C)cn2C)cn1C`, the GI50 in [1], in test [2], in [3], in [9], in test [5] and in [6] was over 100 µM throughout. The GI50 in test [7] and in test [8] was over 100 µM throughout. Further, the TGI in test [1], in test [2], in test [3], in test [9], in test [5] and in test [6] was over 100 µM each time. In addition, the TGI in test [7] and in [8] was over 100 µM each time.

On to `COC(=O)c1nc(NC#N)[nH]c(=O)c1C`, for which the TGI in test [1] is over 84.2 µM; in test [2] it was over 100 µM; in test [3], over 100 µM; in test [4] it was over 100 µM; in test [5], over 100 µM; in test [6] it was over 100 µM. Also, the TGI in test [7] and in [8] was over 100 µM throughout.

Regarding `CCOC(=O)C1C(=O)c2ccccc2CN1Cc1ccccc1` (stereo not given), the TGI in test [1], in [2], in test [3], in test [5], in [6] and in [7] was over 100 µM in each case. This molecule also returned a TGI in test [8] of over 100 µM.

Turning to `CCOC(=O)C(=O)Nc1c(N(CC)CC)n2ccccc2nc1=O`, the TGI in [1], in test [2], in test [3], in [4], in [5] and in [6] was over 100 µM throughout. For the same molecule, the TGI in test [7] and in test [8] was over 100 µM throughout.

As for `CCOP(=O)(OCC)/C(C#N)=C/c1ccco1`, the TGI in test [1], in [2], in test [3], in test [4], in [5] and in [6] was over 100 µM each time. For the same molecule, the TGI in test [7] is over 100 µM.

Regarding `CC(=O)/C=C/c1ccc(C2CC(C)=Nc3c(ccc4c3C(=O)c3ccccc3C4=O)N2)cc1` (stereo not given), the TGI in test [1], in [2], in test [3], in test [4], in test [5] and in [6] was over 100 µM each time. Further, the TGI in test [7] and in [8] was over 100 µM throughout.

As for `c1ccc(N=C2c3ccccc3C3=NCCCN32)cc1`, the TGI in test [1], in test [2], in test [3], in test [4], in test [5] and in test [6] was over 100 µM throughout. Besides, the TGI in test [7] and in test [8] was over 100 µM throughout.
